Experimental data taken from US11839613B2, “Pyrimidine derivatives as PGE2 receptor modulators” (IDORSIA PHARMACEUTICALS LTD, priority 2017, dated 2023).

Tests used:
PTGER2 (EP2) = PTGER2 (EP2) (Homo sapiens (Human), UniProt P43116); assay: hEP2 b-arrestin assay (PathHunter HEK 293 PTGER2 b-arrestin cells); assay type: cell-based; conditions: antagonistic activity, beta-arrestin assay; read-out: hEP2 b-arr IC50
Procedure: Plate is pre-incubated 15 minutes at 37° C. Then five microliters of PGE2 (final conc. 5 μM) are transferred into the assay plate. Plate is incubated 120 minutes at 37° C.
(each concentration is measured in duplicate)

PTGER4 (EP4) = PTGER4 (EP4) (Homo sapiens (Human), UniProt P35408); assay: cell-based
PTGER4 (EP4), sequence (P35408 whole entry): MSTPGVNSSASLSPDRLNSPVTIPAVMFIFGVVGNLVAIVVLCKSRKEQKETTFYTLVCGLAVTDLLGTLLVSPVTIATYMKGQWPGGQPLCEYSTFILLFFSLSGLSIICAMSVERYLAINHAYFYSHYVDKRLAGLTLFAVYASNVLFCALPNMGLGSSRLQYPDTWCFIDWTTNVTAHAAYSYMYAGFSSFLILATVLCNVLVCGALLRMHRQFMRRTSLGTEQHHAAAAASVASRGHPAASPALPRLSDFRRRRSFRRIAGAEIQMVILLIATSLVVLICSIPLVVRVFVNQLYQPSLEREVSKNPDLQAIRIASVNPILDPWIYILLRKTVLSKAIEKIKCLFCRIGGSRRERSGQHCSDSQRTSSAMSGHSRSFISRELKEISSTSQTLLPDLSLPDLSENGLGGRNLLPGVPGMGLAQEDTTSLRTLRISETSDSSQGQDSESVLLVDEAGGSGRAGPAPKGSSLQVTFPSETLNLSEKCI
From the text: The system is based on the Enzyme Fragment Complementation Technology. Two complementing fragments of the b-galactosidase enzyme are expressed within stably transfected cells. The larger portion of b-gal, termed EA for Enzyme Acceptor, is fused to the C-terminus of b-arrestin 2. The smaller fragment, termed ProLink™ tag, is fused to PTGER2 (EP2) or PTRGER4 (EP4) at the C-terminus. Upon activation, b-arrestin is recruited which forces the interaction of ProLink and EA, allowing complementation of the two fragments of b-gal and the formation of a functional enzyme which is capable of hydrolysing the substrate and generating a chemiluminescent signal.
Plate is incubated at 37° C., 5% CO2 for 24 hours.
Stock solutions of test compounds are made at a concentration of 10 mM in DMSO, and serially diluted in DMSO to concentrations required for inhibition dose response curves (tested concentration range 10 μM-2 nM or 1 μM-0.2 nM).
Five microliters of diluted compounds are transferred into the assay plate. Plate is pre-incubated 15 minutes at 37° C. Then five microliters of PGE2 (final conc. 20 nM) are transferred into the assay plate. Plate is incubated 120 minutes at 37° C.
Twelve I of reagent are transferred to the assay plate and incubate for 1 hour at RT in the dark. Luminescence counts are read on a BMG Fluostar Optima reader according to manufacturer's instructions.
For each compound concentration calculate of the percentage of activity compared to DMSO control value as average ±STDEV. (each concentration is measured in duplicate)

EP4 = EP4 (Homo sapiens (Human), UniProt P35408); assay: hEP4 cAMP assay (BT549 breast cancer cells, HTRF cAMP); assay type: cell-based; conditions: antagonistic activity, PGE2 6 nM
EP4, sequence (P35408 whole entry): as above
In short: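 BT549 breast cancer cells (endogenous EP4) in HBSS/20 mM HEPES/0.2% BSA/2 mM IBMX preincubated 45 min at RT with compound, then stimulated 30 min at RT with 6 nM PGE2 (final). cAMP read by competitive HTRF immunoassay, signal inversely proportional to cAMP.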

EP2 = EP2 (Homo sapiens (Human), UniProt P43116); assay: hEP2 cAMP assay (SF295 glioblastoma cells, HTRF cAMP); assay type: cell-based; conditions: antagonistic activity
EP2, sequence (P43116 whole entry): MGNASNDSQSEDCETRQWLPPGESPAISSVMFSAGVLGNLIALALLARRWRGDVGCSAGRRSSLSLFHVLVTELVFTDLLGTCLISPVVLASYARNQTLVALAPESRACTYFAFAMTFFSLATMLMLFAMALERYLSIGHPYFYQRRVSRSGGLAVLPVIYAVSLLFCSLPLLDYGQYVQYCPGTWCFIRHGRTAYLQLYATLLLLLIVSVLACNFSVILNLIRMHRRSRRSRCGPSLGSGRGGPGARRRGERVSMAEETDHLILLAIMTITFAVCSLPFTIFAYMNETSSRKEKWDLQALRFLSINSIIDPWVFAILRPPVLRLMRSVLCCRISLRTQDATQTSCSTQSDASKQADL
In short: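 PGE2-driven cAMP accumulation was measured by HTRF in SF295 cells, which express endogenous EP2 only. Cells in assay buffer with 2 mM IBMX were pre-incubated 45 min at RT, then incubated 30 min at RT. Detection used competition between cellular cAMP and d2-cAMP for a cryptate anti-cAMP antibody.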

PTGER2 (EP2), sequence (P43116 whole entry): as above

IC50 (PTGER2 (EP2)) [nM]	IC50 (PTGER4 (EP4)) [nM]	IC50 (EP4) [nM]	IC50 (EP2) [nM]	IC50 (EP4; BT549 cells) [nM]	SMILES
83	111	229	133		CCOc1cc(-c2cc(NCCc3cc4c(cc3OC)OCCO4)ncn2)ccc1OC(C)C(=O)O (centres unmarked) [Ex 201]
177	2160	138	62		COc1cc2c(cc1CCNc1cc(-c3ccc4c(C(=O)O)coc4c3)ncn1)OCCO2 [Ex 199, 6-{6-[2-(7-Methoxy-2,3-dihydro-benzo[1,4]dioxin-6-yl)-ethylamino]-pyrimidin-4-yl}-benzofuran-3-carboxylic acid]
10	349	211	12		COc1cc2occc2cc1CCNc1cc(-c2ccc(C(=O)O)c(SC)c2)ncn1 [Ex 193, 4-{6-[2-(6-Methoxy-benzofuran-5-yl)-ethylamino]-pyrimidin-4-yl}-2-methylsulfanyl-benzoic acid]
237	9	109	115		CCc1nc(-c2cc(NCCc3ccc4ccccc4c3C)ncn2)sc1-c1noc(=O)[nH]1 [Example 353, 3-(4-Ethyl-2-{6-[2-(1-methyl-naphthalen-2-yl)-ethylamino]-pyrimidin-4-yl}-thiazol-5-yl)-[1,2,4]oxadiazol-5(4H)-one]
538	27	28	190		CCOc1cc(-c2cc(NCCc3ccc4c(c3)CCCO4)ncn2)sc1C(=O)O [Ex 56, 5-[6-(2-Chroman-6-yl-ethylamino)-pyrimidin-4-yl]-3-ethoxy-thiophene-2-carboxylic acid]
226	123	28	210		O=C(O)c1cc2cc(-c3cc(NCCc4ccc5sccc5c4)ncn3)ccc2o1 [Ex 38, 5-[6-(2-Benzo[b]thiophen-5-yl-ethylamino)-pyrimidin-4-yl]-benzofuran-2-carboxylic acid]
41	32	56	27		CCOc1cc(-c2cc(NCCc3ccc4ccccc4c3C)ncn2)sc1C(=O)NS(N)(=O)=O [Example 354, 3-Ethoxy-5-(6-((2-(1-methylnaphthalen-2-yl)ethyl)amino)pyrimidin-4-yl)-N-sulfamoylthiophene-2-carboxamide]
12	9	8	15		CCOc1cc(-c2cc(NCCc3cc4ccoc4cc3F)ncn2)sc1C(=O)O [Ex 13, 3-Ethoxy-5-{6-[2-(6-fluoro-benzofuran-5-yl)-ethylamino]-pyrimidin-4-yl}-thiophene-2-carboxylic acid]
27	30		257	119	CCOc1cc(-c2cc(NCCc3c(OCC)cc4ccccc4c3C)ncn2)ccc1CC(=O)O [Example 420, (2-Ethoxy-4-{6-[2-(3-ethoxy-1-methyl-naphthalen-2-yl)-ethylamino]-pyrimidin-4-yl}-phenyl)-acetic acid]
230	222	144	219		CCCCOc1cc(-c2cc(NCCc3ccc4ccccc4c3C)ncn2)cc(F)c1C(=O)O [Ex 150]
9	2	12	23		CCOc1cc(-c2cc(NCCc3ccc4cc[nH]c4c3)ncn2)sc1-c1noc(=O)[nH]1 [Example 343, 3-(3-Ethoxy-5-{6-[2-(1H-indol-6-yl)-ethylamino]-pyrimidin-4-yl}-thiophen-2-yl)-[1,2,4]oxadiazol-5(4H)-one]
137	69	44	183		CSc1cc(-c2cc(NCCc3cc(Cl)c4sccc4c3)ncn2)ccc1C(=O)O [Example 360, 4-{6-[2-(7-Chloro-benzo[b]thiophen-5-yl)-ethylamino]-pyrimidin-4-yl}-2-methylsulfanyl-benzoic acid]
160	651	278	405		CCOc1cc(-c2cc(NCCc3cc4sccc4cc3OC)ncn2)ccc1C(=O)O [Ex 218]
45	864	379	70		CCOc1cc(-c2cc(NCCc3cc4ccsc4cc3C)ncn2)ccc1C(=O)O [Ex 254, 2-Ethoxy-4-{6-[2-(6-methyl-benzo[b]thiophen-5-yl)-ethylamino]-pyrimidin-4-yl}-benzoic acid]
32	113	90	41		CCOc1cc(-c2cc(NCCc3cc4c(cc3OC(F)F)OCO4)ncn2)sc1C(=O)O [Ex 119, 5-{6-[2-(6-Difluoromethoxy-benzo[1,3]dioxol-5-yl)-ethylamino]-pyrimidin-4-yl}-3-ethoxy-thiophene-2-carboxylic acid]
313	827		245	1400	CCOc1cc(-c2cc(NCCc3ccc4scc(C)c4c3)ncn2)ccc1C(=O)O [Example 465, 2-Ethoxy-4-{6-[2-(3-methyl-benzo[b]thiophen-5-yl)-ethylamino]-pyrimidin-4-yl}-benzoic acid]
51	18	71	89		C#Cc1cc2ccccc2cc1CCNc1cc(-c2ccc(OCC(=O)O)c(OCC)c2)ncn1 [Ex 103, (2-Ethoxy-4-{6-[2-(3-ethynyl-naphthalen-2-yl)-ethylamino]-pyrimidin-4-yl}-phenoxy)-acetic acid]
181	109	103	101		Cc1c(CCNc2cc(-c3cc4c(C(=O)O)cccc4[nH]3)ncn2)ccc2ccccc12 [Ex 127, 2-{6-[2-(1-Methyl-naphthalen-2-yl)-ethylamino]-pyrimidin-4-yl}-1H-indole-4-carboxylic acid]
274	255	47	70		Cc1c(CCNc2cc(-c3ccc(C(=O)O)c(OC(F)F)c3)ncn2)ccc2ccccc12 [Ex 83, 2-Difluoromethoxy-4-{6-[2-(1-methyl-naphthalen-2-yl)-ethylamino]-pyrimidin-4-yl}-benzoic acid]
240	25	21	137		CCOc1cc(-c2cc(NCCc3ccc4ccn(C)c4c3)ncn2)sc1C(=O)O [Ex 42, 3-Ethoxy-5-{6-[2-(1-methyl-1H-indol-6-yl)-ethylamino]-pyrimidin-4-yl}-thiophene-2-carboxylic acid]
6	70	10	4		COc1cc2sccc2cc1CCNc1cc(-c2ccc(C(=O)O)c(SC)c2)ncn1 [Ex 18, 4-{6-[2-(6-Methoxy-benzo[b]thiophen-5-yl)-ethylamino]-pyrimidin-4-yl}-2-methylsulfanyl-benzoic acid]
23	185	157	16		CCSc1cc(-c2cc(NCCc3cc4ccoc4cc3OC)ncn2)ccc1C(=O)O [Ex 158, 2-Ethylsulfanyl-4-{6-[2-(6-methoxy-benzofuran-5-yl)-ethylamino]-pyrimidin-4-yl}-benzoic acid]
107	36	154	221		CCOc1cc(-c2cc(NCCc3ccc4ccccc4c3C)ncn2)ccc1-c1nnn[nH]1 [Ex 156]
264	29	32	590		CCCc1cc(-c2cc(NCCc3cc(F)c4sccc4c3)ncn2)ccc1CC(=O)O [Example 390, (4-{6-[2-(7-Fluoro-benzo[b]thiophen-5-yl)-ethylamino]-pyrimidin-4-yl}-2-propyl-phenyl)-acetic acid]
7	20	7	3		CCOc1cc(-c2cc(NCCc3cc4ccoc4cc3OC)ncn2)sc1C(=O)O [Ex 12, 3-Ethoxy-5-{6-[2-(6-methoxy-benzofuran-5-yl)-ethylamino]-pyrimidin-4-yl}-thiophene-2-carboxylic acid]
118	47	244	190		CCOc1cc(-c2cc(NCCc3ccc4ccccc4c3C)ncn2)ccc1NCC(=O)O [Ex 205]
180	140	157	179		CCOc1cc(-c2cc(NCCc3cc4occc4cc3OC)ncn2)ccc1OCC(=O)O [Ex 159, (2-Ethoxy-4-{6-[2-(5-methoxy-benzofuran-6-yl)-ethylamino]-pyrimidin-4-yl}-phenoxy)-acetic acid]

SMILES	IC50 (PTGER2 (EP2)) [nM]	IC50 (PTGER4 (EP4)) [nM]	IC50 (EP4) [nM]	IC50 (EP2) [nM]	IC50 (EP4; BT549 cells) [nM]
CCCCOc1cc(-c2cc(NCCc3ccc4ccccc4c3C)ncn2)ccc1C(=O)O [Ex 169, 2-Butoxy-4-{6-[2-(1-methyl-naphthalen-2-yl)-ethylamino]-pyrimidin-4-yl}-benzoic acid]	141	269	168	125	
COc1cc2occc2cc1CCNc1cc(-c2ccc(C(=O)O)c(OC3CCC3)c2)ncn1 [Ex 100, 2-Cyclobutoxy-4-{6-[2-(6-methoxy-benzofuran-5-yl)-ethylamino]-pyrimidin-4-yl}-benzoic acid]	35	176	67	29	
